Experimental data published in article PMC11855478, “Bicyclic N,S-Acetals Containing Fused Cysteine-Amide System as New Heterocyclic Class Targeting Human Farnesyltransferase (FTase-h)” (International Journal of Molecular Sciences, 2025).

Tests used:
SF-268 (CNS Cancer) = assay: NCI one dose, SF-268; type: cell-based, human; conditions: SF-268, 1.00E-5 Molar one dose
Procedure: (§1) 3.4. Cell Proliferation Assay
(§2) Selected compounds were tested on a panel of 60 human cancer cell lines at the National Cancer Institute (NCI), Germantown, MD, USA. The cytotoxicity studies were conducted using a 48 h exposure protocol using the sulfo-rhodamine B assay.

MALME-3M (Melanoma) = assay: NCI one dose, MALME-3M; type: cell-based, human; conditions: 1.00E-5 Molar one dose
Procedure: as §1, §2

[1] = test system: NCI-H522 non-small cell lung cancer cells; assay: NCI cell proliferation, NCI-H522; type: cell-based, human; conditions: for inhibition at 10 µM: Homo sapiens, NCI-H522, read-out: % Cancer cell growth Inhibition (NCI-H522); for Growth Percent: NCI-H522, 1.00E-5 Molar one dose
Procedure: as §1, §2

PC-3 (Prostate Cancer) = assay: NCI one dose, PC-3; type: cell-based, human; conditions: PC-3, 1.00E-5 Molar one dose
Procedure: as §1, §2

SNB-19 (CNS Cancer) = assay: NCI one dose, SNB-19; type: cell-based, human; conditions: SNB-19, 1.00E-5 Molar one dose
Procedure: as §1, §2

DU-145 (Prostate Cancer) = assay: NCI one dose, DU-145; type: cell-based, human; conditions: DU-145, 1.00E-5 Molar one dose
Procedure: as §1, §2

UO-31 renal cancer cells = assay: NCI one dose, UO-31; type: cell-based, human; conditions: UO-31, 1.00E-5 Molar one dose
Procedure: as §1, §2

U251 (CNS Cancer) = assay: NCI one dose, U251; type: cell-based, human; conditions: U251, 1.00E-5 Molar one dose
Procedure: as §1, §2

[2] = test system: HOP-92 (Non-Small Cell Lung Cancer); assay: NCI one dose, HOP-92; type: cell-based, human; conditions: HOP-92, 1.00E-5 Molar one dose
Procedure: as §1, §2

MDA-MB-435 (Melanoma) = assay: NCI one dose, MDA-MB-435; type: cell-based, human; conditions: MDA-MB-435, 1.00E-5 Molar one dose
Procedure: as §1, §2

LOX IMVI (Melanoma) = assay: NCI one dose, LOX IMVI; type: cell-based, human; conditions: 1.00E-5 Molar one dose
Procedure: as §1, §2

[3] = test system: NCI-H23 (Non-Small Cell Lung Cancer); assay: NCI one dose, NCI-H23; type: cell-based, human; conditions: NCI-H23, 1.00E-5 Molar one dose
Procedure: as §1, §2

SK-MEL-2 (Melanoma) = assay: NCI one dose, SK-MEL-2; type: cell-based, human; conditions: SK-MEL-2, 1.00E-5 Molar one dose
Procedure: as §1, §2

ACHN (Renal Cancer) = assay: NCI one dose, ACHN; type: cell-based, human; conditions: 1.00E-5 Molar one dose
Procedure: as §1, §2

HCT-116 (Colon Cancer) = assay: NCI one dose, HCT-116; type: cell-based, human; conditions: HCT-116, 1.00E-5 Molar one dose
Procedure: as §1, §2

[4] = test system: EKVX (Non-Small Cell Lung Cancer); assay: NCI one dose, EKVX; type: cell-based, human; conditions: 1.00E-5 Molar one dose
Procedure: as §1, §2

KM12 (Colon Cancer) = assay: NCI one dose, KM12; type: cell-based, human; conditions: KM12, 1.00E-5 Molar one dose
Procedure: as §1, §2

CCRF-CEM (Leukemia) = assay: NCI one dose, CCRF-CEM; type: cell-based, human; conditions: 1.00E-5 Molar one dose
Procedure: as §1, §2

[5] = test system: HOP-62 (Non-Small Cell Lung Cancer); assay: NCI one dose, HOP-62; type: cell-based, human; conditions: HOP-62, 1.00E-5 Molar one dose
Procedure: as §1, §2

CAKI-1 (Renal Cancer) = assay: NCI one dose, CAKI-1; type: cell-based, human; conditions: CAKI-1, 1.00E-5 Molar one dose
Procedure: as §1, §2

BT-549 (Breast Cancer) = assay: NCI one dose, BT-549; type: cell-based, human; conditions: BT-549, 1.00E-5 Molar one dose
Procedure: as §1, §2

RXF 393 (Renal Cancer) = assay: NCI one dose, RXF 393; type: cell-based, human; conditions: RXF 393, 1.00E-5 Molar one dose
Procedure: as §1, §2

[6] = molecular target: human farnesyltransferase (FTase) (Homo sapiens, UniProt P49354+P49356); assay: FTase inhibitory assay (fluorescence, Dansyl-GCVLS); type: biochemical; conditions: for % FTI: inhibition of human FTase at 100 μM of tested compound, mean of two experiments; for IC50: human FTase in vitro
Procedure: With 40 new products in hand, the determination of their inhibitory activity on human farnesyl-transferase (FTase) in vitro was first undertaken. Dimethyl sulfoxide (DMSO) was used as the negative control, and Chaetomellic acid A was the positive reference in all assays. At the outset, and in order to select only significant results, products with an inhibitory power greater than 60% at an initial screening concentration of 100 µM were retained for the determination of their IC50 and, therefore, for further discussion. Moreover, given the number of products tested, they are grouped into three subfamilies on the basis of the degree of the sulphur atom oxidation (series of sulfides, series of sulfoxides, and series of sulfones), and the results obtained are grouped in Table 1, Table 2 and Table 3.
3.3. FTase Inhibitory Assay
Assays were realized in 96-well plates, prepared with a Biomek NKMC and a Biomek 3000 from Beckman Coulter, and read on a Wallac Victor fluorimeter from PerkinElmer. Per well, 20 µL of farnesyl pyrophosphate (10 μM) was added to 180 µL of a solution containing 2 µL of varied concentrations of potential inhibitors (dissolved in DMSO) and 178 μL of a solution composed of 10 μL of partially purified recombinant human FTase (15 µg mL^−1) and 1.0 µL of Dansyl-GCVLS peptide (in the following buffer: 5.6 mM DTT, 5.6 mM MgCl2, 12 μM ZnCl2 and 0.2% (w/v) octyl-β-D-glucopyranoside, 52 mM Tris/HCl, pH 7.5). Fluorescence was recorded for 15 min (0.7 s per well, 20 repeats) at 30 °C with an excitation filter at 340 nm and an emission filter of 486 nm. Each measurement was reproduced twice, in duplicate. The kinetic experiments were realized under the same conditions, either with FPP as varied substrate with a constant concentration of Dns-GCVLS of 2.5 μM or with Dns-GCVLS as varied substrate with a constant concentration of FPP of 10 μM. Non-linear regressions were performed using the Excel software.

UACC-62 (Melanoma) = assay: NCI one dose, UACC-62; type: cell-based, human; conditions: UACC-62, 1.00E-5 Molar one dose
Procedure: as §1, §2

K-562 leukaemia cells = assay: NCI one dose, K-562; type: cell-based, human; conditions: K-562, 1.00E-5 Molar one dose
Procedure: as §1, §2

MOLT-4 (Leukemia) = assay: NCI one dose, MOLT-4; type: cell-based, human; conditions: MOLT-4, 1.00E-5 Molar one dose
Procedure: as §1, §2

| Structure (SMILES) | Growth Percent (SF-268 (CNS Cancer)) [%] | Growth Percent (MALME-3M (Melanoma)) [%] | inhibition at 10 µM [1] [%] | Growth Percent [1] [%] | Growth Percent (PC-3 (Prostate Cancer)) [%] | Growth Percent (SNB-19 (CNS Cancer)) [%] | Growth Percent (DU-145 (Prostate Cancer)) [%] | Growth Percent (UO-31 renal cancer cells) [%] | Growth Percent (U251 (CNS Cancer)) [%] | Growth Percent [2] [%] | Growth Percent (MDA-MB-435 (Melanoma)) [%] | Growth Percent (LOX IMVI (Melanoma)) [%] | Growth Percent [3] [%] | Growth Percent (SK-MEL-2 (Melanoma)) [%] | Growth Percent (ACHN (Renal Cancer)) [%] | Growth Percent (HCT-116 (Colon Cancer)) [%] | Growth Percent [4] [%] | Growth Percent (KM12 (Colon Cancer)) [%] | Growth Percent (CCRF-CEM (Leukemia)) [%] | Growth Percent [5] [%] | further results |
| --- | --- | --- | --- | --- | --- | --- | --- | --- | --- | --- | --- | --- | --- | --- | --- | --- | --- | --- | --- | --- | --- |
| COc1cc(CNC(=O)[C@@H]2CS[C@H]3c4ccccc4C(=O)N23)cc(OC)c1OC [4aJ] | 104.63 | 105.79 | 17 | 83.00 | 87.87 | 92.64 | 113.37 | 84.08 | 104.21 | 93.68 | 106.49 | 99.61 | 100.31 | 95.25 | 100.59 | 92.64 | 101.46 | 103.41 | 96.01 | 94.96 | Growth Percent (CAKI-1 (Renal Cancer)): 95.05%; Growth Percent (BT-549 (Breast Cancer)): 92.77%; Growth Percent (RXF 393 (Renal Cancer)): 110.79%; % FTI [6]: 23%; Growth Percent (UACC-62 (Melanoma)): 92.01%; Growth Percent (K-562 leukaemia cells): 90.55%; Growth Percent (MOLT-4 (Leukemia)): 90.32% |
| O=C(NCc1ccc(Cl)cc1Cl)[C@@H]1CS[C@H]2c3ccccc3C(=O)N12 [4aH] | 98.11 | 107.73 | 27 | 72.97 | 81.35 | 97.06 | 109.93 | 83.58 | 95.21 | 75.56 | 100.39 | 100.51 | 99.59 | 99.61 | 99.60 | 83.47 | 100.24 | 99.99 | 92.66 | 97.52 | Growth Percent (CAKI-1 (Renal Cancer)): 101.46%; Growth Percent (BT-549 (Breast Cancer)): 97.76%; Growth Percent (RXF 393 (Renal Cancer)): 105.25%; % FTI [6]: 52%; Growth Percent (UACC-62 (Melanoma)): 85.33%; Growth Percent (K-562 leukaemia cells): 91.56%; Growth Percent (MOLT-4 (Leukemia)): 79.54% |
| O=C(NCc1ccccc1)[C@@H]1CS[C@H]2c3ccccc3C(=O)N12 [4aA] | 90.56 | 111.55 | 13 | 79.32 | 96.96 | 96.70 | 111.90 | 91.66 | 97.80 | 87.72 | 106.84 | 97.27 | 100.85 | 105.03 | 102.35 | 87.66 | 105.39 | 110.51 | 96.52 | 97.31 | Growth Percent (CAKI-1 (Renal Cancer)): 94.90%; Growth Percent (BT-549 (Breast Cancer)): 93.57%; Growth Percent (RXF 393 (Renal Cancer)): 114.31%; Growth Percent (UACC-62 (Melanoma)): 97.72%; Growth Percent (K-562 leukaemia cells): 101.44%; Growth Percent (MOLT-4 (Leukemia)): 95.69% |
| COc1ccc(CNC(=O)[C@@H]2CS[C@H]3c4ccccc4C(=O)N23)cc1 [4aF] | 101.17 | 100.21 | 13 | 87.40 | 90.27 | 90.14 | 116.46 | 75.18 | 98.53 | 86.03 | 114.08 | 100.31 | 108.19 | 118.58 | 95.49 | 101.21 | 106.31 | 100.55 | 97.27 | 94.33 | Growth Percent (CAKI-1 (Renal Cancer)): 97.50%; Growth Percent (BT-549 (Breast Cancer)): 103.55%; Growth Percent (RXF 393 (Renal Cancer)): 117.51%; IC50 [6]: 2730 nM; % FTI [6]: 80%; Growth Percent (UACC-62 (Melanoma)): 91.16%; Growth Percent (K-562 leukaemia cells): 99.90%; Growth Percent (MOLT-4 (Leukemia)): 97.28% |
| O=C(NCc1cccc(C(F)(F)F)c1)[C@@H]1CS[C@H]2c3ccccc3C(=O)N12 [4aD] | 96.16 | 106.15 | 25 | 74.73 | 86.39 | 95.15 | 110.52 | 78.58 | 94.74 | 79.43 | 107.10 | 100.26 | 100.33 | 94.10 | 101.09 | 91.63 | 103.29 | 98.82 | 99.20 | 85.91 | Growth Percent (CAKI-1 (Renal Cancer)): 97.61%; Growth Percent (BT-549 (Breast Cancer)): 92.70%; Growth Percent (RXF 393 (Renal Cancer)): 114.41%; % FTI [6]: 37%; Growth Percent (UACC-62 (Melanoma)): 89.84%; Growth Percent (K-562 leukaemia cells): 89.33%; Growth Percent (MOLT-4 (Leukemia)): 86.93% |
| O=C(NCc1ccccc1C(F)(F)F)[C@@H]1CS[C@H]2c3ccccc3C(=O)N12 [4aC] | 93.86 | 108.73 | 22 | 78.18 | 85.22 | 95.80 | 107.34 | 74.84 | 91.06 | 77.56 | 102.87 | 102.58 | 105.15 | 99.87 | 99.65 | 87.63 | 99.35 | 102.90 | 93.25 | 87.37 | Growth Percent (CAKI-1 (Renal Cancer)): 97.48%; Growth Percent (BT-549 (Breast Cancer)): 96.07%; Growth Percent (RXF 393 (Renal Cancer)): 115.46%; IC50 [6]: 594 nM; % FTI [6]: 62%; Growth Percent (UACC-62 (Melanoma)): 88.82%; Growth Percent (K-562 leukaemia cells): 94.12%; Growth Percent (MOLT-4 (Leukemia)): 85.46% |
